This is an account of results in patent EP4650362A1, “NEUROPROTECTIVE PSD-95 POLYPEPTIDE INHIBITOR AND USE THEREOF” (Beijing Tuo Jie Biopharmaceutical Co. Ltd., priority 2023, dated 2024).

Read-outs that look alike come from different tables or passages of the source. Non-standard residues stand in square brackets, D forms with d. Residues, ends and D or L forms follow the SMILES beside them. Tle = CC(C)(C)[C@H](N)C(=O)O; Dab = NCC[C@H](N)C(=O)O; Aib = CC(C)(N)C(=O)O Some results are limits rather than exact numbers.

One series has as its target T1, human PSD95-PDZ3 (Homo sapiens, UniProt P78352).
T1 construct: PDZ3 (309-401, Flag-His-Avitag-TEVsite tag); made in house
The series is described as follows: binding ELISA with Biotin-PDZ3. The text has this: The three PDZ domains in the PSD95 protein are structurally similar. Binding to the PDZ1 and PDZ2 domains can effectively block PSD95-mediated neuroexcitotoxicity. However, the biological function of binding to the PDZ3 domain is unclear. Therefore, to avoid potential safety concerns, this test example assessed the selectivity of polypeptide compounds for the PDZ2 and PDZ3 domains, aiming to identify polypeptide compounds that specifically bind to the PDZ2 domain. The expression and purification of PSD95-PDZ3 protein were carried out with reference to the steps in 3.1.2. The amino acid sequence of PDZ3 protein: […] Site-specifically biotinylated Biotin-PDZ2 and Biotin-PDZ3 proteins were used for binding ELISA assays. […] After the blocking was complete, the blocking solution was discarded, and the plate was washed three times with PBST buffer. […] After the incubation was complete, the reaction solutions in the microplate were discarded, and the plate was washed three times with PBST. 100 μL of HRP-SA secondary antibody (diluted at 1:2000) was added to each well, and the plate was incubated at 37 °C for 1 h. After the plate was washed three times with PBST, 100 μL of TMB chromogenic substrate was added. […] The absorbance at 450 nm was measured using a SpectraMax M5 microplate reader, and the binding EC50 values of the test compounds to Biotin-PDZ2 or Biotin-PDZ3 were calculated using GraphPad Prism 9. […] The abilities of polypeptide compounds to bind to human PSD95-PDZ2 and human PSD95-PDZ3

For series [1], the system named is rat red blood cell suspensions. The series is described as follows: hemolysis risk test in rat whole blood. As to conditions: for Hemolysis rate (%): Rat, 37 °C 1 h. The class given is cell-based. The text has this: Hemolysis refers to the phenomenon in which the membrane of erythrocytes is destroyed, along with increased transparency and a dark red appearance. Certain pharmaceutical ingredients, excipients, etc. may contain hemolytic components, which may cause hemolysis in the human body and cause adverse reactions such as local swelling and blood circulation dysfunction. On the basis of the principle that the hemoglobin released from lysed red blood cells has absorption in the visible light wave band, test compound solutions were added to rat red blood cell suspensions, and after incubation, the degrees of hemolysis were determined using a microplate reader.
(§1) This test example assessed whether a polypeptide compound causes hemolytic reactions in rat, rabbit, and human whole blood.
(§2) Preparation of red blood cell suspension: 100 µL of fresh whole blood was collected, and 900 µL of 1× PBS solution was then added. The mixture was shaken on a plate shaker at 30 rpm for 5 min and then centrifuged at 1000 g for 5 min, and the supernatant was discarded. The above washing step was repeated until the supernatant no longer appeared red. The suspension was set aside for later use.
(§3) Preparation of test polypeptide solutions: An appropriate amount of 1× PBS solution was added to a powdered polypeptide, and the polypeptide was dissolved to form a standard stock solution. […] Meanwhile, blank 1× PBS was used as a negative control, and a 1× PBS solution containing 0.1% Triton X-100 was used as a positive control.
(§4) Incubation: A test solution (500 µL) was added to the red blood cell suspension, and then the mixture was well shaken on a plate shaker at 30 rpm for 5 min, incubated at 37 °C for 1 h, and centrifuged at 1000 g for 5 min.
(§5) 100 µL of the supernatant was transferred to a single well of a microplate. The absorbance at 540 nm was measured using a SpectraMax M5 microplate reader, and data analysis was performed using GraphPad Prism 9. The hemolysis rate (%) was calculated using the formula: (test sample absorbance - negative control absorbance) / (positive control absorbance - negative control absorbance) × 100%. A rate of less than 5% indicates the absence of hemolysis, while a rate of greater than 5% indicates the presence of hemolysis. Table 3. Testing of the hemolysis risk of the polypeptide compound

The next series relates to human whole blood. The series can be described thus: hemolysis risk test in human whole blood. The class given is cell-based. As to conditions: for Hemolysis rate (%): Human, 37 °C 1 h. As to the method:
as §1, §2, §3, §4, §5

A short description of series [2]: pharmacokinetic study of different doses in rats. The class given is in vivo, SD rats. As to conditions: SD, rat, plasma, intravenous bolus injection; for AUC(0-t): blood to 180 min, n = 3, read-out: AUC(0-t); for AUC(0-inf) / MRT / half-life: n = 3; for Cmax: n = 3, read-out: Cmax. The procedure:
For example, at high doses, the agent causes symptoms such as tachycardia and blood pressure reduction due to excessive histamine release. Therefore, the pharmacokinetic profile of polypeptide compound 14 was assessed again using three doses: a high dose (3 nmol/g), a medium dose (1 nmol/g), and a low dose (0.3 nmol/g). […] Plasma concentration-time curves were plotted, and the pharmacokinetic parameters were calculated using WinNonlin software. Table 6. Intravenous bolus injection pharmacokinetic parameters in rats (different doses, n = 3)

In the next series the test system is histamine release. The series can be described thus: ability to induce histamine release in beagle dogs (plasma). The class given is in vivo. The arrangement: Histamine levels (sums of detected histamine and 3-methylhistamine): unit not given here. As to conditions: for Histamine levels (sums of detected histamine and 3-methylhistamine): beagle dog plasma. As to the method: With beagle dogs as test animals, the ability of a polypeptide compound administered via single intravenous infusion to induce histamine release in dogs (plasma) was studied.
This test was performed synchronously with Test Examples 3.9, with four animals per group and blood collection time points set as follows: before administration (0 h), and 2 min, 5 min, and 15 min after the end of intravenous infusion.
Sample analysis and data processing were performed with reference to the methods in 3.7.3. Table 10. Histamine levels at different time points

T1 sequence (P78352 309-401): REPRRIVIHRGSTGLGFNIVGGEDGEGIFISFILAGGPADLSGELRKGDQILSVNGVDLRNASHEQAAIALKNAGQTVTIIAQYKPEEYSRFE

Turning to `CC[C@H](C)[C@H](NC(=O)[C@H](CO)NC(=O)[C@H](CO)NC(=O)[C@H](CC(C)C)NC(=O)[C@@H](CCCCN)NC(=O)[C@H](CCCNC(=N)N)NC(=O)[C@H](CCCNC(=N)N)NC(=O)[C@@H](CCCNC(=N)N)NC(=O)[C@H](CCC(N)=O)NC(=O)[C@@H](CCCNC(=N)N)NC(=O)[C@H](CCCNC(=N)N)NC(=O)[C@H](CCCCN)NC(=O)[C@H](CCCCN)NC(=O)[C@@H](CCCNC(=N)N)NC(=O)CNC(=O)[C@@H](N)Cc1ccc(O)cc1)C(=O)N[C@@H](CCC(=O)O)C(=O)N[C@@H](CO)C(=O)N[C@@H](CC(=O)O)C(=O)N[C@H](C(=O)O)C(C)C` [NoNO42, YGrKKRrQrRRkLSSIESDV, reference compound] (H-YG[dR]KKR[dR]Q[dR]RR[dK]LSSIESDV-OH), the EC50 at human PSD95-PDZ3 is more than 1000 µM.

On to `CC(C)[C@H](NC(=O)[C@H](CC(=O)O)NC(=O)[C@@H](NC(=O)[C@@H](NC(=O)[C@@H](NC(=O)[C@@H](NC(=O)[C@H](CCN)NC(=O)C(C)(C)NC(=O)CNC(=O)[C@@H](CCCNC(=N)N)NC(=O)[C@@H](CCCNC(=N)N)NC(=O)[C@@H](CCCNC(=N)N)NC(=O)[C@@H](CCC(N)=O)NC(=O)[C@@H](CCCNC(=N)N)NC(=O)[C@@H](CCCNC(=N)N)NC(=O)[C@@H](CCCCN)NC(=O)[C@@H](CCCCN)NC(=O)[C@@H](CCCNC(=N)N)NC(=O)CNC(=O)[C@H](N)Cc1ccc(O)cc1)[C@@H](C)O)C(C)(C)C)C(C)(C)C)[C@@H](C)O)C(=O)O` [Polypeptide compound 14, y-G-r-k-k-r-r-q-r-r-r-G-Aib-Dab-T-Tle-Tle-T-D-V] (H-[dY]G[dR][dK][dK][dR][dR][dQ][dR][dR][dR]G[Aib][Dab]T[Tle][Tle]TDV-OH), for which the EC50 on human PSD95-PDZ3 (plate coated with 2 µM test compound, Biotin-PDZ3 titrated, read-out: EC50 (PDZ3)) was more than 1000 µM. Moreover, the “Hemolysis rate (%)” value is given as 0.11% in series [1] (1.0 µM); 0.17% in series [1] (2.5 µM); -0.11% in series [1] (5.0 µM); 0.00% in series [1] (10 µM); -0.16% in series [1] (25 µM); 0.12% in series [1] (50 µM). The “Hemolysis rate (%)” value in the series with human whole blood (1.0 µM) is 0.09%; with human whole blood (2.5 µM) it was 0.38%; with human whole blood (5.0 µM), 0.15%; in the series with human whole blood (10 µM), 0.31%; in the series on human whole blood (25 µM), 0.08%; in the series on human whole blood (50 µM), 0.53%. Also, the hemolysis rates entry in series [1] (rat whole blood, concentration range of 1 to 50 µM) is “less than 5%”; with human whole blood (human whole blood, concentration range of 1 to 50 µM) it was “less than 5%”. The figures for the AUC(0-t) in series [2] (0.3 nmol/g), in series [2] (1 nmol/g) and in series [2] (3 nmol/g) were 1230 ng·h/mL, 5860 ng·h/mL and 15000 ng·h/mL, respectively. Also, the values for the AUC(0-inf) in series [2] (0.3 nmol/g), in series [2] (1 nmol/g) and in series [2] (3 nmol/g) were 1280 ng·h/mL, 6600 ng·h/mL and 17700 ng·h/mL, respectively. For the same compound, the MRT in series [2] (0.3 nmol/g) is 0.856 h; in series [2] (1 nmol/g) it was 1.31 h; in series [2] (3 nmol/g), 1.47 h. Moreover, the half-life in series [2] (0.3 nmol/g) was 0.723 h; in series [2] (1 nmol/g), 0.967 h; in series [2] (3 nmol/g), 1.15 h. The Cmax in series [2] (0.3 nmol/g) came out at 1870 ng/mL; in series [2] (1 nmol/g), 5970 ng/mL; in series [2] (3 nmol/g), 18300 ng/mL.

`CC(C)[C@H](NC(=O)[C@H](CC(=O)O)NC(=O)[C@@H](NC(=O)[C@@H](NC(=O)[C@@H](NC(=O)[C@@H](NC(=O)[C@H](CCN)NC(=O)C(C)(C)NC(=O)CNC(=O)[C@@H](CCCNC(=N)N)NC(=O)[C@H](CCCNC(=N)N)NC(=O)[C@H](CCCNC(=N)N)NC(=O)[C@H](CCC(N)=O)NC(=O)[C@@H](CCCNC(=N)N)NC(=O)[C@H](CCCNC(=N)N)NC(=O)[C@H](CCCCN)NC(=O)[C@H](CCCCN)NC(=O)[C@H](N)CCCNC(=N)N)[C@@H](C)O)C(C)(C)C)C(C)(C)C)[C@@H](C)O)C(=O)O` [Polypeptide compound 22, r-K-K-R-r-Q-R-R-r-G-Aib-Dab-T-Tle-Tle-T-D-V] (H-[dR]KKR[dR]QRR[dR]G[Aib][Dab]T[Tle][Tle]TDV-OH): the “Histamine levels (sums of detected histamine and 3-methylhistamine)” value in the series with histamine release (0.4 nmol/g, 0 min (before administration)) is 6.28±5.01; in the series with histamine release (0.4 nmol/g, 2 min after the end of intravenous infusion), 9.45±7.38; in the series with histamine release (0.4 nmol/g, 5 min after the end of intravenous infusion), 11.70±8.39; in the series with histamine release (0.4 nmol/g, 15 min after the end of intravenous infusion), 7.97±2.75; in the series with histamine release (1.2 nmol/g, 0 min (before administration)) it was 7.06±4.14; with histamine release (1.2 nmol/g, 2 min after the end of intravenous infusion), 12.71±10.47. Moreover, the “Histamine levels (sums of detected histamine and 3-methylhistamine)” value in the series with histamine release (1.2 nmol/g, 5 min after the end of intravenous infusion) turned out to be 6.24±1.78; in the series on histamine release (1.2 nmol/g, 15 min after the end of intravenous infusion), 5.81±1.44. Further, the “changes in histamine levels compared to before administration” value in the series with histamine release (beagle dogs, both doses (0.4 and 1.2 nmol/g)) is reported as “no significant changes in histamine levels”.

As usually defined, the EC50 is the concentration that produces a half-maximal response. As usually defined, the AUC(0-t) is the area under the concentration-time curve up to a stated or last time point. As a reminder, the AUC(0-inf) is total exposure, with the tail of the curve extrapolated. As a reminder, the MRT is a mean duration of stay, worked out from the concentration-time curve. The half-life is how long it takes for the measured level to halve. Usually Cmax stands for the maximum level reached in the sampled fluid or tissue.
